Assay results: ChEMBL document CHEMBL1140734, “Identification of novel, water-soluble, 2-amino-N-pyrimidin-4-yl acetamides as A2A receptor antagonists with in vivo efficacy” (J Med Chem, 2008)
≈ marks a conversion by molar mass, not a printed value.

Key:
[1] = Solubility in PBS at pH 7.4; type: physicochemical
[2] = molecular target: T1, Adenosine receptor A1 (Homo sapiens, UniProt P30542); experiment: biochemical
T1 sequence (P30542 whole entry): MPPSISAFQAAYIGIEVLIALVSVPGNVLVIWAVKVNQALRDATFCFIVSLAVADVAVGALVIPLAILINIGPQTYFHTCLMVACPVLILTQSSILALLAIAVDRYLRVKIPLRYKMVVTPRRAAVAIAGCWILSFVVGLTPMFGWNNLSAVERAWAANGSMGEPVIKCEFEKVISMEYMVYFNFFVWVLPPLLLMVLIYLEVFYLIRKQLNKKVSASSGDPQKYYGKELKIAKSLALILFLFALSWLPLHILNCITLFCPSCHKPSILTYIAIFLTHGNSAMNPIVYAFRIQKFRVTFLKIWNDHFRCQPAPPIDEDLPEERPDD
Description: Displacement of [3H]DPCPX from human recombinant adenosine A1 receptor expressed in HEK293 cells

[3] = species: Homo sapiens; experiment: Selectivity for human adenosine A2A receptor over human adenosine A1 receptor
[4] = Metabolic stability assessed as intrinsic clearance in human liver microsomes; type: ADME, Microsome
[5] = molecular target: Adenosine receptor A2a (Homo sapiens, UniProt P29274); experiment: biochemical
Adenosine receptor A2a (Homo sapiens, UniProt P29274), sequence (P29274 whole entry): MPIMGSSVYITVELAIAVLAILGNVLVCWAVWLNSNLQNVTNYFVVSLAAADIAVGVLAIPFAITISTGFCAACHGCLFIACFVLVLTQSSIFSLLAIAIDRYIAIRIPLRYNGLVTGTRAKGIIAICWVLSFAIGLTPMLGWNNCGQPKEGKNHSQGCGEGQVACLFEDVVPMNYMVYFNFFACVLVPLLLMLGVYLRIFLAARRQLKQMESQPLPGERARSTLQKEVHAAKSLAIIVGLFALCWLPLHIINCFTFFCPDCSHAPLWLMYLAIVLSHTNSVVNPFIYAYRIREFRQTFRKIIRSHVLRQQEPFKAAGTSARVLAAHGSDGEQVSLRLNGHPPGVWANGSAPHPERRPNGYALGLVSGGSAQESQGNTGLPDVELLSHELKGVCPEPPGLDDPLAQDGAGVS
Description: Displacement of [3H]ZM-241385 from human recombinant adenosine A2A receptor expressed in HEK293 cells

[6] = Drug level in rat brain at 10 mg/kg, po after 2 hrs; type: ADME, organism-based; set-up: dose 10 mg/kg, route oral; conditions: read-out: Drug uptake
[7] = molecular target: Adenosine receptor A2a (Rattus norvegicus, UniProt P30543); experiment: biochemical
Adenosine receptor A2a (Rattus norvegicus, UniProt P30543), sequence (P30543 whole entry): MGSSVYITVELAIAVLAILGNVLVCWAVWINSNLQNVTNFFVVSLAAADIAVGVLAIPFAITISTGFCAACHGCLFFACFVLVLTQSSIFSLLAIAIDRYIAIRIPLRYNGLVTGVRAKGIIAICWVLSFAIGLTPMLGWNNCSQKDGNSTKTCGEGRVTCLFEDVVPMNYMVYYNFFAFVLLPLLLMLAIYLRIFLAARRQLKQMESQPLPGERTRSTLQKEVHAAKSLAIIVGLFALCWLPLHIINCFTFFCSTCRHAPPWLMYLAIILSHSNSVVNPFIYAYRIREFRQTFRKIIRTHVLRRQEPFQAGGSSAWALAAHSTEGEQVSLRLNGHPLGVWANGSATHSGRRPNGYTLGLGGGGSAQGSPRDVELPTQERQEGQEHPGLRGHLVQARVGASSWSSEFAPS
Description: Displacement of [3H]ZM241385 from rat recombinant adenosine A2A receptor expressed in CHO cells

[8] = Oral bioavailability in rat at 10 mg/kg; type: ADME, organism-based; conditions: in vivo
[9] = molecular target: T2, Adenosine receptor A2b (Homo sapiens, UniProt P29275); experiment: Displacement of [3H]MRS1754 from human adenosine A2B receptor
T2 sequence (P29275 whole entry): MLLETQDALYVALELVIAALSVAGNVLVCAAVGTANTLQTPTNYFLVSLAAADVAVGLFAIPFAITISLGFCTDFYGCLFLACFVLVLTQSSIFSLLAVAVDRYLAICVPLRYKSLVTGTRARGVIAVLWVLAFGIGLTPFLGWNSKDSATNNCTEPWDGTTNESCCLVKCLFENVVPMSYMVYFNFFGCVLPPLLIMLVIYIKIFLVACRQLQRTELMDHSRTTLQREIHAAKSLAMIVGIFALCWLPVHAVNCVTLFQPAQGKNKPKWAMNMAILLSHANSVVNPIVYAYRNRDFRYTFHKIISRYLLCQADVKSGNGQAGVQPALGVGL

[10] = Lipophilicity, log D of the compound; type: physicochemical; conditions: octanol/water
[11] = Solubility in water; type: physicochemical
[12] = AUC in rat at 10 mg/kg, po; type: ADME, organism-based; set-up: dose 10 mg/kg, route oral; conditions: plasma
[13] = Dissociation constant, pKa of the compound; type: physicochemical
[14] = molecular target: T3, Adenosine receptor A3 (Homo sapiens, UniProt P0DMS8); experiment: Displacement of [125I]AB-MECA from human adenosine A3 receptor
T3 sequence (P0DMS8 whole entry): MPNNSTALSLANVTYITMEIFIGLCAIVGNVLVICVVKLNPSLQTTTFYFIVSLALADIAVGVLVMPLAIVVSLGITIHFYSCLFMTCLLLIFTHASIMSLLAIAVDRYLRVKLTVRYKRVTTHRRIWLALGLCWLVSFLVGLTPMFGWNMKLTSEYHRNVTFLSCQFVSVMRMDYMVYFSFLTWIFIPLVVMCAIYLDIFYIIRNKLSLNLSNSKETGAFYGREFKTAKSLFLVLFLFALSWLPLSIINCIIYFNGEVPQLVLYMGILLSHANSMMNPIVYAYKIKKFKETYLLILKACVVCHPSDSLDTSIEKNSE

Nc1cc(-n2cccn2)nc(-c2ccco2)n1
solubility ([1]; PBS, read-out: Solubility): 80 µg/mL (≈ 352 µM)
Ki [2]: 56 nM
Ratio Ki [3]: 20
CLint scaled [4]: 73 mL/min/kg
Ki [5]: 2.9 nM

COCCOc1ccc(N2CCN(CCn3ncc4c3nc(N)n3nc(-c5ccco5)nc43)CC2)cc1 [PRELADENANT]
solubility ([1]; buffer): < 0.01 µg/mL

CC(=O)Nc1cc(-n2cccn2)nc(-c2ccco2)n1
Ki [2]: 9.2 nM
Ratio Ki [3]: 15

CN1CCN(CC(=O)Nc2cc(-c3nccs3)nc(-c3ccco3)n2)CC1
Ki [2]: 218 nM
Ratio Ki [3]: 238
concentration at 2 h [6]: 3200 ng/g
Ki [7]: 11 nM
Ki [5]: 0.9 nM

O=C(CN1CCOCC1)Nc1cc(-n2cccn2)nc(-c2ccco2)n1
Ki [2]: 63 nM
Ratio Ki [3]: 39
Ki [5]: 1.6 nM

CN(C)CC(=O)Nc1cc(-n2cccn2)nc(-c2ccco2)n1
Ki [2]: 28 nM
Ratio Ki [3]: 5
Ki [5]: 5.2 nM

Cc1cc(C)n(-c2cc(NC(=O)CN3CCN(C)CC3)nc(-c3ccco3)n2)n1
Ki [2]: 1730 nM
Ratio Ki [3]: 864
concentration at 2 h [6]: 600 ng/g
Ki [7]: 14 nM
Ki [5]: 2 nM

CN1CCN(CC(=O)Nc2cc(-n3cccn3)nc(-c3ccco3)n2)CC1
bioavailability [8]: 79%
Ki [9]: 35 nM
Ki [2]: 266 nM
Ratio Ki [3]: 99
concentration at 2 h [6]: 2700 ng/g
Ki [7]: 26 nM
logD [10]: 2.2
CLint scaled [4]: 6 mL/min/kg
solubility [11]: > 25000 µg/mL
AUC [12]: 2870 ng·h/mL
pKa [13]: 7.9
Ki [14]: 660 nM
Ki [5]: 2.7 nM
